# Reference: patent publication US20040005294A1, “IGFBP-3 in the diagnosis and treatment of cancer” (priority 2002, published 2004)
# Legend:
# Type in all cases: cell-based, human
# JNK in 1799 cells = assay: Immune complex kinase assay for JNK; conditions: 10^−7 M
# Description: (§1) Approximately 5×10^6 1799 cells were treated with 10^−7 M deguelin or 0.1% DMSO for various time periods in the absence of any additional stimulatory growth factors. The cells were then treated with 50 ng/mL IGF-I for 15 minutes to activate MAPK. Total cell extracts were prepared in lysis buffer (Lonardo et al. 2002), and ERK-1/2 or c-Jun N-terminal kinase (JNK) were immunoprecipitated from 100 μg of each cell extract using antibodies (1 μg) that recognize ERK1/2 or JNK (Santa Cruz Biotechnology) and protein-A sepharose beads (20 μL) (Amersham Pharmacia Biotech). Kinase assays were performed by incubating the beads with 30 μL of kinase buffer to which 5 μCi of [γ^32P]ATP (2000 cpm/pmol) and 1 μg of substrate (myelin basic protein [MBP; Calbiochem, La Jolla, Calif.] or GST-cJun [Santa Cruz Biotechnology]) were added, as previously described (Lee et al., 2002). The samples were suspended in Laemmli buffer, boiled for 5 min, and then analyzed by SDS-polyacrylamide gel clectrophoresis. The gel was dried and autoradiographed. Total cell lysates from Jurkat cells (Upstate Biotechnology, Inc.) and H1299 NSCLC treated with 50 ng/mL IGF-I for 15 min were used as positive controls. Changes in the level of phosphorylation in MBP or GST-cJun reflect changes in Erk1/2 and JNK activity, respectively.
# HB56B cells = assay: MTT proliferation assay, HB56B cells; conditions: 10^−9 M to 10^−7 M, 1-3 days
# Description: To measure the effects of deguelin on cell proliferation, NHBE, 1799, 1198, 1170-1, and HB56B cells were plated at concentrations of 2×10^3 to 4×10^3 cells/well in 96-well plates. The next day, cells were treated with either 0.1% DMSO as a diluent control or various concentrations of deguelin (final DMSO concentration=0.1%). At the end of the assay time period, cell proliferation was measured by the 3-(4,5-dimethylthiazol-2-yl)-2,5-diphenyltetrazolium bromide (MTT) assay as described (Lee et al., 2002). Six replicate wells were used for each analysis, and data from replicate wells are presented as means with 95% confidence intervals (CIs). For some experiments, the drug concentration required to inhibit cell growth by 50% (IC50) was determined by interpolation from dose-response curves. At least three independent experiments were performed.
# PI3K in 1799 cells = assay: PI3K assay of immunoprecipitates; conditions: 10^−7 M, IGF-I activated
# Description: Approximately 5×10^6 1799 cells were treated with 10^−7 M deguelin or 0.1% DMSO for different time periods (0-24 h) in the absence of any additional stimulatory growth factors. PI3K in these cells was then activated by treatment with 50 ng/mL IGF-I for 15 min. Cells were lylsed, and PI3K was immunoprecipitated from 500 μg of total cell extracts with 5 μL of rabbit antibody against full-length rat p85 PI3K (Upstate Biotechnology, Inc.), which coprecipitates the p110 catalytic subunit of PI3K, and 20 μL of protein A-sepharose beads (Amersham Pharmacia Biotech). PI3K activity in the immunoprecipitates was analyzed using bovine brain extract (Type I; Sigma-Aldrich), which contains a mixture of phosphatidylinositol, phosphatidylinositol 4-phosphate, and phosphatidylinositol 4,5-bisphosphate as a substrate, as described (Hsu et al., 2000). Jurkat cell lysates (Upstate Biotechnology, Inc.) and IGF-I-activated […] NSCLC cell lysates were used as positive controls.
# ERK1/2 in 1799 cells = assay: Immune complex kinase assay for ERK1/2; conditions: 10^−7 M, 0-24 h, then 50 ng/mL IGF-I for 15 min
# Description: as §1
# [1] = test system: PI3K/Akt pathway in 1799 cells; assay: Immunoblot of pAkt and pGSK-3β, 1799 cells; conditions: 10^−7 M
# Description: Whole cell lysates from 1×10^6 cells were prepared in lysis buffer as described (Lonardo et al., 2002). Equivalent amounts of protein were resolved by sodium dodecyl sulfate (SDS)-polyacrylamide gels (7.5%-12%) and transferred to a nitrocellulose membrane. After the membrane was blocked in Tris-buffered saline (TBS) containing 0.05% Tween 20 (TBST) and 5% (w/v) nonfat powdered milk, the membrane was incubated with primary antibody at the appropriate dilution in TBS-5% nonfat milk at 4° C. for 16 h. The membrane was then washed multiple times with TBST and incubated with the appropriate horseradish peroxidaseconjugated secondary antibody for 1 h at room temperature. The protein-antibody complexes were detected by enhanced chemilurminescence (ECL kit; Amersham, Arlington Heights, Ill.), according to the manufacturer's recommended protocol. […]
compound,measurement,setting,value
"COc1cc2c(cc1OC)[C@@H]1C(=O)c3ccc4c(c3O[C@@H]1CO2)C=CC(C)(C)O4 [deguelin, Deguelin]",JNK activity,JNK in 1799 cells,not affected
same,effect on growth of HB56B cells,HB56B cells,Dose- and time-dependent growth-inhibitory effects
same,decrease in PI3K activity compared with untreated cells,PI3K in 1799 cells,approximately 55%
same,ERK1/2 activity,ERK1/2 in 1799 cells,no discernible effect
same,levels of pAkt and pGSK-3β,[1]; 0-24 h,time-dependent decrease in the levels of pAkt and pGSK-3β
same,pAkt level,[1]; by 14 h,virtually undetectable
